Assays:
Assay in all cases: relative viability (nuclei count vs DMSO), 5 days (fraction); higher = more cells survive
201T = system: 201T
Summary of the method: (§1)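 Five library-drug doses in √10 steps were combined with a fixed anchor-drug dose, or a single drug was given alone, by pin tool to lung cancer cell lines in 1536-well plates the day after seeding. Nuclei were stained and counted after 5 days. Relative viability is the nuclei count in treated wells over that in vehicle wells, taken as the median of duplicate plates.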

ABC-1 = system: ABC-1
Summary of the method: as §1

BEN = system: BEN
Summary of the method: as §1

HCC-366 = system: HCC-366
Summary of the method: as §1

HCC-44 = system: HCC-44
Summary of the method: as §1

HCC-78 = system: HCC-78
Summary of the method: as §1

LK-2 = system: LK-2
Summary of the method: as §1

LOU-NH91 = system: LOU-NH91
Summary of the method: as §1

NCI-H1355 = system: NCI-H1355
Summary of the method: as §1

NCI-H1650 = system: NCI-H1650
Summary of the method: as §1

NCI-H1666 = system: NCI-H1666
Summary of the method: as §1

NCI-H1734 = system: NCI-H1734
Summary of the method: as §1

NCI-H1755 = system: NCI-H1755
Summary of the method: as §1

NCI-H2009 = system: NCI-H2009
Summary of the method: as §1

NCI-H2228 = system: NCI-H2228
Summary of the method: as §1

NCI-H2347 = system: NCI-H2347
Summary of the method: as §1

NCI-H2405 = system: NCI-H2405
Summary of the method: as §1

NCI-H358 = system: NCI-H358
Summary of the method: as §1

NCI-H520 = system: NCI-H520
Summary of the method: as §1

NCI-H727 = system: NCI-H727
Summary of the method: as §1

NCI-H838 = system: NCI-H838
Summary of the method: as §1

SW 1573 = system: SW 1573
Summary of the method: as §1

UMC-11 = system: UMC-11
Summary of the method: as §1

Structure (SMILES): O=C(O)CCCCC(CCSCc1ccccc1)SCc1ccccc1 (centres undefined) [CPI-613] + N=C(N)NC(=N)NCCc1ccccc1 [Phenformin] (partner 250 µM)
- relative viability (201T; first compound 5 µM): 0.514
- relative viability (201T; first compound 15.81 µM): 0.432
- relative viability (201T; first compound 50 µM): 0.415
- relative viability (201T; first compound 158.11 µM): 0.36
- relative viability (201T; first compound 500 µM): 0.0726
- relative viability (ABC-1; first compound 5 µM): 0.22
- relative viability (ABC-1; first compound 15.81 µM): 0.211
- relative viability (ABC-1; first compound 50 µM): 0.247
- relative viability (ABC-1; first compound 158.11 µM): 0.146
- relative viability (ABC-1; first compound 500 µM): 0.192
- relative viability (BEN; first compound 5 µM): 0.242
- relative viability (BEN; first compound 15.81 µM): 0.251
- relative viability (BEN; first compound 50 µM): 0.255
- relative viability (BEN; first compound 158.11 µM): 0.25
- relative viability (BEN; first compound 500 µM): 0.215
- relative viability (HCC-366; first compound 5 µM): 0.554
- relative viability (HCC-366; first compound 15.81 µM): 0.567
- relative viability (HCC-366; first compound 50 µM): 0.651
- relative viability (HCC-366; first compound 158.11 µM): 0.239
- relative viability (HCC-366; first compound 500 µM): 0.0045
- relative viability (HCC-44; first compound 5 µM): 0.15
- relative viability (HCC-44; first compound 15.81 µM): 0.195
- relative viability (HCC-44; first compound 50 µM): 0.185
- relative viability (HCC-44; first compound 158.11 µM): 0.268
- relative viability (HCC-44; first compound 500 µM): 0.248
- relative viability (HCC-78; first compound 5 µM): 0.712
- relative viability (HCC-78; first compound 15.81 µM): 0.647
- relative viability (HCC-78; first compound 50 µM): 0.787
- relative viability (HCC-78; first compound 158.11 µM): 0.591
- relative viability (HCC-78; first compound 500 µM): 0.651
- relative viability (LK-2; first compound 5 µM): 0.379
- relative viability (LK-2; first compound 15.81 µM): 0.32
- relative viability (LK-2; first compound 50 µM): 0.517
- relative viability (LK-2; first compound 158.11 µM): 0.346
- relative viability (LK-2; first compound 500 µM): 0.0954
- relative viability (LOU-NH91; first compound 5 µM): 0.784
- relative viability (LOU-NH91; first compound 15.81 µM): 0.591
- relative viability (LOU-NH91; first compound 50 µM): 0.652
- relative viability (LOU-NH91; first compound 158.11 µM): 0.504
- relative viability (LOU-NH91; first compound 500 µM): 0.526
- relative viability (NCI-H1355; first compound 5 µM): 0.423
- relative viability (NCI-H1355; first compound 15.81 µM): 0.412
- relative viability (NCI-H1355; first compound 50 µM): 0.411
- relative viability (NCI-H1355; first compound 158.11 µM): 0.347
- relative viability (NCI-H1355; first compound 500 µM): 0.105
- relative viability (NCI-H1650; first compound 5 µM): 0.403
- relative viability (NCI-H1650; first compound 15.81 µM): 0.408
- relative viability (NCI-H1650; first compound 50 µM): 0.366
- relative viability (NCI-H1650; first compound 158.11 µM): 0.136
- relative viability (NCI-H1650; first compound 500 µM): 0.0086
- relative viability (NCI-H1666; first compound 5 µM): 0.56
- relative viability (NCI-H1666; first compound 15.81 µM): 0.539
- relative viability (NCI-H1666; first compound 50 µM): 0.534
- relative viability (NCI-H1666; first compound 158.11 µM): 0.26
- relative viability (NCI-H1666; first compound 500 µM): 0.251
- relative viability (NCI-H1734; first compound 5 µM): 0.389
- relative viability (NCI-H1734; first compound 15.81 µM): 0.322
- relative viability (NCI-H1734; first compound 50 µM): 0.348
- relative viability (NCI-H1734; first compound 158.11 µM): 0.219
- relative viability (NCI-H1734; first compound 500 µM): 0.0834
- relative viability (NCI-H1755; first compound 5 µM): 0.608
- relative viability (NCI-H1755; first compound 15.81 µM): 0.642
- relative viability (NCI-H1755; first compound 50 µM): 0.558
- relative viability (NCI-H1755; first compound 158.11 µM): 0.533
- relative viability (NCI-H1755; first compound 500 µM): 0.183
- relative viability (NCI-H2009; first compound 5 µM): 0.478
- relative viability (NCI-H2009; first compound 15.81 µM): 0.443
- relative viability (NCI-H2009; first compound 50 µM): 0.42
- relative viability (NCI-H2009; first compound 158.11 µM): 0.0548
- relative viability (NCI-H2009; first compound 500 µM): 0.0187
- relative viability (NCI-H2228; first compound 5 µM): 0.344
- relative viability (NCI-H2228; first compound 15.81 µM): 0.33
- relative viability (NCI-H2228; first compound 50 µM): 0.222
- relative viability (NCI-H2228; first compound 158.11 µM): 0.208
- relative viability (NCI-H2228; first compound 500 µM): 0.0339
- relative viability (NCI-H2347; first compound 5 µM): 0.441
- relative viability (NCI-H2347; first compound 15.81 µM): 0.352
- relative viability (NCI-H2347; first compound 50 µM): 0.461
- relative viability (NCI-H2347; first compound 158.11 µM): 0.471
- relative viability (NCI-H2347; first compound 500 µM): 0.378
- relative viability (NCI-H2405; first compound 5 µM): 0.394
- relative viability (NCI-H2405; first compound 15.81 µM): 0.367
- relative viability (NCI-H2405; first compound 50 µM): 0.392
- relative viability (NCI-H2405; first compound 158.11 µM): 0.396
- relative viability (NCI-H2405; first compound 500 µM): 0.371
- relative viability (NCI-H358; first compound 15.81 µM): 0.297
- relative viability (NCI-H358; first compound 50 µM): 0.31
- relative viability (NCI-H358; first compound 158.11 µM): 0.172
- relative viability (NCI-H358; first compound 500 µM): 0.017
- relative viability (NCI-H520; first compound 5 µM): 0.667
- relative viability (NCI-H520; first compound 15.81 µM): 0.433
- relative viability (NCI-H520; first compound 50 µM): 0.634
- relative viability (NCI-H520; first compound 158.11 µM): 0.446
- relative viability (NCI-H520; first compound 500 µM): 0.35
- relative viability (NCI-H727; first compound 5 µM): 0.548
- relative viability (NCI-H727; first compound 15.81 µM): 0.693
- relative viability (NCI-H727; first compound 50 µM): 0.62
- relative viability (NCI-H727; first compound 158.11 µM): 0.353
- relative viability (NCI-H727; first compound 500 µM): 0.0983
- relative viability (NCI-H838; first compound 5 µM): 0.586
- relative viability (NCI-H838; first compound 15.81 µM): 0.481
- relative viability (NCI-H838; first compound 50 µM): 0.558
- relative viability (NCI-H838; first compound 158.11 µM): 0.261
- relative viability (NCI-H838; first compound 500 µM): 0.0688
- relative viability (SW 1573; first compound 5 µM): 0.347
- relative viability (SW 1573; first compound 15.81 µM): 0.357
- relative viability (SW 1573; first compound 50 µM): 0.304
- relative viability (SW 1573; first compound 158.11 µM): 0.0746
- relative viability (SW 1573; first compound 500 µM): 0.0663
- relative viability (UMC-11; first compound 5 µM): 0.274
- relative viability (UMC-11; first compound 15.81 µM): 0.297
- relative viability (UMC-11; first compound 50 µM): 0.289
- relative viability (UMC-11; first compound 158.11 µM): 0.124
- relative viability (UMC-11; first compound 500 µM): 0.117

— the supplement of paper PMC10307832
